According to article PMC3408453, “A Foldamer-Dendrimer Conjugate Neutralizes Synaptotoxic β-Amyloid Oligomers” (PLoS ONE, 2012):

Tests used:
[1] = tested on: LTP in mouse hippocampal slices impaired by Aβ(1–42) oligomers; test: Ex vivo hippocampal slice LTP electrophysiology; assay type: cell-based; details: mean ±SEM
Text: We investigated whether 7 could protect against the synaptic plasticity damage caused by Aβ(1–42) oligomers by using a hippocampus slice LTP model. LTP, a correlate of learning and memory has been repeatedly shown to be impaired by Aβ(1–42) oligomers. As negative control, substance 11 was applied. The experimenters were blind to the compounds tested.
These observations indicate the significant protective effect of 7 (Figure 12D). To test the effects of valency, LTP experiments were repeated with 8 under the same conditions.
Via standard procedures, 350-µm-thick transverse hippocampal slices were prepared from the brain of 7-months-old mice (CD1, Animal Breeding Facility, University of Szeged) with a McIlwain tissue chopper (Campden Instruments, Loughborough, UK). Slices were incubated in standard artificial cerebrospinal fluid (ACSF) at ambient temperature for 60 min, during constant gassing with 95% O2–5% CO2. The ACSF contained (mM): NaCl, 130; KCl, 3.5; CaCl2, 2; MgCl2, 2; NaH2PO4, 0.96; NaHCO3, 24; and D-glucose, 10 (pH 7.4). Individual slices were transferred to a 3D-MEA chip with 60 tip-shaped and 60-μm-high electrodes spaced at 100 μm (Ayanda Biosystems, S.A., Lausanne, Switzerland). The slice was continuously perfused with oxygenated ACSF (1.5 ml min^−1 at 34 °C) containing 720 nM Aβ(1–42) oligomers and/or 950 nM ligand throughout the recording session. Data were recorded with a standard, commercially available MEA setup (Multi Channel Systems MCS GmbH, Reutlingen, Germany). The Schaffer-collateral was stimulated by injecting a biphasic current waveform (−100/+100 μs) through one selected electrode at 0.033 Hz. Care was taken to choose the stimulating electrode in the same region from one slice to the other. The peak-to-peak amplitudes of fEPSPs at the stratum pyramidale and stratum radiatum of CA1 were analyzed. After a 30-min incubation period, the threshold and the maximum of stimulation intensity for evoke responses was determined. To evoke responses, 30% of the maximal stimulation intensity was used. LTP was induced by applying a theta-burst stimulation (TBS) pattern at the maximal stimulation intensity. The TBS comprised four trains administered at 20-s intervals with 10 bursts given at 5 Hz per train and 4 pulses at 100 Hz per burst. Statistical analysis was carried out by using two-tailed Student's t-test. For representative raw data see Figure S12.

[2] = molecular target: T1, Aβ oligomers (HMW and LMW fractions) (Homo sapiens, UniProt P05067); test: SEC analysis of Aβ oligomer – ligand mixtures (affinity precipitation); details: 50 µM Aβ oligomers, injected after filtration
T1 construct: a depsipeptide derivative of Aβ(1–42) was utilized; made in house; host or cells: chemical peptide synthesis (no expression host)
Protocol: This hypothesis was tested via SEC analysis (Figure 10A). Mixtures of 50 µM Aβ oligomers with 7 in 0.25 and 1.0 equivalents were injected on the SEC column after filtration. […] We concluded that the affinity precipitation occurs for the HMW component, but the LMW fraction is also affected at higher ligand concentrations. […] Thus it was possible to test if the LMW fraction co-elutes with 7. […] The HMW precipitate was also tested for the presence of 7 with LC-MS, and the result confirmed the heterocomplex nature of the product (Figure 10C).
Figure 10 Lower tendency of the LMW Aβ oligomer fraction to affinity precipitation. (A) SEC analysis of pure Aβ oligomers (black) and mixtures of 50 µM Aβ oligomers with 7 in 0.25 (green) and 1.0 (blue) equivalents. The samples were injected on the SEC column after filtration. […] (B) LC-MS results on the LMW fraction taken at 19 min. […] (C) LC-MS results on the HMW precipitate, which confirmed the heterocomplex nature of the product.
iso-Aβ(1–42) was dissolved in sodium hydrocarbonate buffered saline (pH 7.4) to 50 µM and incubated for 24 h at 37°C. The oligomeric Aβ was loaded onto an Äkta Purifier FPLC system (GE Healthcare, UK) equipped with a Superose 6 10 300 column. Sample was eluted at a flow rate of 0.5 ml/min. FPLC chromatogram was taken at 280 nm and 1 ml fractions were collected during the separation.

[3] = molecular target: T2, LMW fraction of Aβ oligomers (Homo sapiens, UniProt P05067); test: Concentration-dependent dot blot with SEC-separated LMW Aβ oligomer fraction; assay type: binding; details: 10 µg ligand spotted, BAM10 1∶500
T2 construct: a depsipeptide derivative of Aβ(1–42) was utilized; made in house; host or cells: chemical peptide synthesis (no expression host)
Protocol: ITC measurement for 7 indicated fractional stoichiometry for the low nM binding, which pointed to that the high affinity interaction involves only a fraction of the oligomeric Aβ sample. To localize the strongly binding fraction in the mixture, size exclusion chromatographic (SEC) separation was carried out and the resulting Aβ oligomer fractions were tested with 7 in concentration-dependent dot blot experiments. Two dominant peaks were found in the SEC chromatogram corresponding to the high molecular weight (HMW) and low molecular weight (LMW) components (Figure 7). […] In control experiments, specific and/or preferential binding of Aβ by the membrane itself were ruled out. These findings were in line with the ITC and ELISA results. It could be concluded that 7 preferentially bound to the LMW fraction at low nM concentration and also interacted with the HMW fraction at sub-µM level.
Figure 7 Selective binding to the LMW Aβ oligomers in the nM range. Size exclusion chromatographic separation of the HMW and LMW fractions of the Aβ oligomeric sample (top panel). Concentration-dependent dot blot experiments performed with the HMW (A) and the LMW fractions (B). The ligand loadings were 10 µg aliquots of 7, and the sequence specific antibody BAM10 (1∶500) was utilized. Lanes within the panels are parallel experiments. […]

N=C(N)NCCC[C@@H](CC(=O)N[C@H]1CCCC[C@@H]1C(=O)N[C@H]1CCCC[C@@H]1C(=O)N[C@@H](CC(=O)O)CC(=O)N[C@H]1CCCC[C@@H]1C(=O)NCC(=O)NCC(=O)N[C@@H](CSC1CC(=O)N(CCC(=O)NCCNC(=O)CCN(CCC(=O)NCCNC(=O)CCN2C(=O)CC(SC[C@H](NC(=O)CNC(=O)CNC(=O)[C@H]3CCCC[C@@H]3NC(=O)C[C@H](CC(=O)O)NC(=O)[C@H]3CCCC[C@@H]3NC(=O)[C@H]3CCCC[C@@H]3NC(=O)C[C@H](CCCNC(=N)N)NC(=O)[C@H]3CCCC[C@@H]3N)C(N)=O)C2=O)CCN(CCC(=O)NCCNC(=O)CCN2C(=O)CC(SC[C@H](NC(=O)CNC(=O)CNC(=O)[C@H]3CCCC[C@@H]3NC(=O)C[C@H](CC(=O)O)NC(=O)[C@H]3CCCC[C@@H]3NC(=O)[C@H]3CCCC[C@@H]3NC(=O)C[C@H](CCCNC(=N)N)NC(=O)[C@H]3CCCC[C@@H]3N)C(N)=O)C2=O)CCC(=O)NCCNC(=O)CCN2C(=O)CC(SC[C@H](NC(=O)CNC(=O)CNC(=O)[C@H]3CCCC[C@@H]3NC(=O)C[C@H](CC(=O)O)NC(=O)[C@H]3CCCC[C@@H]3NC(=O)[C@H]3CCCC[C@@H]3NC(=O)C[C@H](CCCNC(=N)N)NC(=O)[C@H]3CCCC[C@@H]3N)C(N)=O)C2=O)C1=O)C(N)=O)NC(=O)[C@H]1CCCC[C@@H]1N (some centres unmarked) [Compound 7]
LTP (potentiation) with Aβ(1–42) oligomers and ligand together ([1]; 720 nM Aβ(1–42) oligomers + 950 nM ligand, 180 min after LTP induction): 195±5% | LTP (potentiation) with ligand alone ([1]; 950 nM ligand, no Aβ oligomers): 184±16% | SEC: effect on HMW and LMW Aβ fractions at 0.25 equivalents of ligand ([2]; 0.25 equivalents): the HMW fraction fully precipitated and disappeared from the SEC chromatogram, whereas the LMW fraction remained intact | SEC: effect on HMW and LMW Aβ fractions at 1.0 equivalents of ligand ([2]; 1.0 equivalents): the HMW fraction again disappeared and a partial decrease was observed for the LMW fraction | Dot blot binding of LMW Aβ oligomer fraction [3]: saturation of binding in the low nanomolar region
